Assay results: patent publication US6127339A, “Peptide for binding thereto a low density lipoprotein” (Asahi Kasei Kogyo Kabushiki Kaisha, priority 1995, dated 2000)
No end group written: not given here.

Each substance was assayed on LDL (assay: Staining of peptide-bonded resin with biotinylated LDL in plasma (ABC method)). Settings: Table 1, peptide-bonded TG resin, room temperature 1 hour, peroxidase-streptoavidin/3,3'-diaminobenzidine.
Type: binding
Parameters: key: the peptide-bonded resins which were stained are indicated with "+ (plus)"; the peptide-bonded resins which were not stained are indicated with "- (minus)"
Protocol: With respect to the adsorbent comprising the water-insoluble carrier having bonded thereto the peptide, as a method for evaluating the binding ability (affinity) of the adsorbent for an LDL, there can be mentioned a method in which, after causing an LDL to be adsorbed on the adsorbent, the adsorbent having the LDL adsorbed thereon is subjected to staining (avidin-biotin complex method, that is, ABC method). Specifically, a biotinylated LDL is added to plasma, and the adsorbent is immersed in the plasma for a predetermined period of time. Then, the adsorbent is taken out of the plasma, and washed. Subsequently, the adsorbent is immersed in a horseradish peroxidase-labeled streptoavidin solution, and a solution of 3,3'-diamino benzidine, which is a substrate for the above-mentioned enzyme (horseradish peroxidase), is added thereto, thereby staining the adsorbent. The binding ability of the adsorbent for LDL is evaluated from the degree of the staining. With respect to methods for evaluating a binding ability for LDL, reference can be made to, for example, the following literature: S. M. Hsu, L. Raine, H. Fanger, J. Histchem. Cytochem., 29, 577 (1981); and H. Towbin, T. Staehelin, J. Gordon, Proc. Natl. Acad. Sci. U.S.A., 76, 4350 (1979).
The ability of each of the peptides to bind thereto an LDL was evaluated as follows. To a blood sample obtained from a healthy person was added a 3.8% aqueous solution of sodium citrate to thereby obtain a mixture. The obtained mixture was centrifuged to separate the blood sample into a blood cells component and a plasma component.
On the other hand, each of the above-mentioned polystyrene resins having bonded thereto the above-synthesized peptides was individually taken out from the synthesis reaction system and packed in a column having a filter (manufactured and sold by Bio-Rad laboratories, U.S.A.). Subsequently, the plasma-LDL mixture prepared above was added to the column, and the column was allowed to stand at room temperature for 1 hour. Then, the column was washed with a physiological saline containing 0.1% Tween 20 and sodium phosphate. After the washing, 1 ml of a horseradish peroxidase-labeled streptoavidine (0.2 ug/ml) solution containing 10% Block Ace (manufacturedand sold by Dainippon Pharmaceutical Co., Ltd., Japan) was added to the column, and the column was allowed to stand at room temperature for 30 minutes. Then, 1 ml of a 3,3'-diaminobenzidine tetrahydrochloride ([…]) solution containing 0.005% hydrogen peroxide was added to the column (by the addition of this solution, when a peptide-bonded resin contained in the column has the LDL bonded thereto, the resin is stained to assume brown color).
Results are shown in Table 1, wherein the peptide-bonded resins which were stained are indicated with "+ (plus)" and the peptide-bonded resins which were not stained are indicated with "- (minus)".
The ability of each of the peptides to bind thereto an LDL was evaluated in substantially the same manner as in Example 1.

Substance	Stain
Example 1 Sample 3: pentapeptide N1-N5 = W Q R H F, bonded to TG polystyrene resin (WQRHF; not fully specified; printed as Trp Gln Arg His Phe)	+
Comparative Example 1 Sample 3: comparative pentapeptide N1-N5 = L H R H L, bonded to TG polystyrene resin (LHRHL; not fully specified; printed as Leu His Arg His Leu) [reference compound]	-
Comparative Example 1 Sample 4: comparative pentapeptide N1-N5 = L T M K M, bonded to TG polystyrene resin (LTMKM; not fully specified; printed as Leu Thr Met Lys Met) [reference compound]	-
Example 1 Sample 2: pentapeptide N1-N5 = F K I W W, bonded to TG polystyrene resin (FKIWW; not fully specified; printed as Phe Lys Ile Trp Trp)	+
Example 1 Sample 4: pentapeptide N1-N5 = I F Y K W, bonded to TG polystyrene resin (IFYKW; not fully specified; printed as Ile Phe Tyr Lys Trp)	+
Comparative Example 1 Sample 5: comparative pentapeptide N1-N5 = M L T V R, bonded to TG polystyrene resin (MLTVR; not fully specified; printed as Met Leu Thr Val Arg) [reference compound]	-
Example 1 Sample 5: pentapeptide N1-N5 = W A L Y R, bonded to TG polystyrene resin (WALYR; not fully specified; printed as Trp Ala Leu Tyr Arg)	+
Comparative Example 1 Sample 1: comparative pentapeptide N1-N5 = R A H I N, bonded to TG polystyrene resin (RAHIN; not fully specified; printed as Arg Ala His Ile Asn) [reference compound]	-
Example 1 Sample 1: pentapeptide N1-N5 = R F Y Y M, bonded to TG polystyrene resin (RFYYM; not fully specified; printed as Arg Phe Tyr Tyr Met)	+

Same assay, conditions: Table 2, peptide-bonded TG resin, same manner as Example 1

Substance	Stain
Comparative Example 2 Sample 9: comparative pentapeptide N1-N5 = E W S M T, bonded to TG polystyrene resin (EWSMT; not fully specified; printed as Glu Trp Ser Met Thr) [reference compound]	-
Comparative Example 2 Sample 7: comparative pentapeptide N1-N5 = F G A I V, bonded to TG polystyrene resin (FGAIV; not fully specified; printed as Phe Gly Ala Ile Val) [reference compound]	-
Example 2 Sample 12: pentapeptide N1-N5 = L N F R W, bonded to TG polystyrene resin (LNFRW; not fully specified; printed as Leu Asn Phe Arg Trp)	+
Comparative Example 2 Sample 6: comparative pentapeptide N1-N5 = Y I Q V W, bonded to TG polystyrene resin (YIQVW; not fully specified; printed as Tyr Ile Gln Val Trp) [reference compound]	-
Comparative Example 2 Sample 11: comparative pentapeptide N1-N5 = W V D H N, bonded to TG polystyrene resin (WVDHN; not fully specified; printed as Trp Val Asp His Asn) [reference compound]	-
Example 2 Sample 4: pentapeptide N1-N5 = R F W L F, bonded to TG polystyrene resin (RFWLF; not fully specified; printed as Arg Phe Trp Leu Phe)	+
Example 2 Sample 14: pentapeptide N1-N5 = W L M W R, bonded to TG polystyrene resin (WLMWR; not fully specified; printed as Trp Leu Met Trp Arg)	+
Comparative Example 2 Sample 1: comparative pentapeptide N1-N5 = T H R Q R, bonded to TG polystyrene resin (THRQR; not fully specified; printed as Thr His Arg Gln Arg) [reference compound]	-
Example 2 Sample 2: pentapeptide N1-N5 = F A Y R R, bonded to TG polystyrene resin (FAYRR; not fully specified; printed as Phe Ala Tyr Arg Arg)	+
Example 2 Sample 7: pentapeptide N1-N5 = W R Y D R, bonded to TG polystyrene resin (WRYDR; not fully specified; printed as Trp Arg Tyr Asp Arg)	+
Comparative Example 2 Sample 5: comparative pentapeptide N1-N5 = H W V V H, bonded to TG polystyrene resin (HWVVH; not fully specified; printed as His Trp Val Val His) [reference compound]	-
Comparative Example 2 Sample 14: comparative pentapeptide N1-N5 = V E E M E, bonded to TG polystyrene resin (VEEME; not fully specified) [reference compound]	-
Example 2 Sample 9: pentapeptide N1-N5 = Y Y R W F, bonded to TG polystyrene resin (YYRWF; not fully specified; printed as Tyr Tyr Arg Trp Phe)	+
Example 2 Sample 3: pentapeptide N1-N5 = R W I L Q, bonded to TG polystyrene resin (RWILQ; not fully specified; printed as Arg Trp Ile Leu Gln)	+
Example 2 Sample 5: pentapeptide N1-N5 = R Y A F W, bonded to TG polystyrene resin (RYAFW; not fully specified; printed as Arg Tyr Ala Phe Trp)	+
Comparative Example 2 Sample 2: comparative pentapeptide N1-N5 = H Y Y L Q, bonded to TG polystyrene resin (HYYLQ; not fully specified; printed as His Tyr Tyr Leu Gln) [reference compound]	-
Example 2 Sample 11: pentapeptide N1-N5 = F F W R G, bonded to TG polystyrene resin (FFWRG; not fully specified; printed as Phe Phe Trp Arg Gly)	+
Example 2 Sample 13: pentapeptide N1-N5 = F L M R F, bonded to TG polystyrene resin (FLMRF; not fully specified; printed as Phe Leu Met Arg Phe)	+
Comparative Example 2 Sample 10: comparative pentapeptide N1-N5 = F I I M E, bonded to TG polystyrene resin (FIIME; not fully specified; printed as Phe Ile Ile Met Glu) [reference compound]	-
Comparative Example 2 Sample 13: comparative pentapeptide N1-N5 = F N F E S, bonded to TG polystyrene resin (FNFES; not fully specified; printed as Phe Asn Phe Glu Ser) [reference compound]	-
Example 2 Sample 1: pentapeptide N1-N5 = W T A R R, bonded to TG polystyrene resin (WTARR; not fully specified; printed as Trp Thr Ala Arg Arg)	+
